This note sets out measurements from US6897237B2, “MMP-12 inhibitors” (Shionogi & Co. Ltd., priority 2000, dated 2005).

Holding throughout (format): biochemical
What all share (details): substrate MOCAc-Pro-Leu-Gly-Leu-A2Pr(DNP)-Ala-Arg-NH2

In one assay the target is T1, MMP-1 (Homo sapiens, UniProt P03956).
T1 construct: purchased Yagai
T1 sequence (P03956 100-469): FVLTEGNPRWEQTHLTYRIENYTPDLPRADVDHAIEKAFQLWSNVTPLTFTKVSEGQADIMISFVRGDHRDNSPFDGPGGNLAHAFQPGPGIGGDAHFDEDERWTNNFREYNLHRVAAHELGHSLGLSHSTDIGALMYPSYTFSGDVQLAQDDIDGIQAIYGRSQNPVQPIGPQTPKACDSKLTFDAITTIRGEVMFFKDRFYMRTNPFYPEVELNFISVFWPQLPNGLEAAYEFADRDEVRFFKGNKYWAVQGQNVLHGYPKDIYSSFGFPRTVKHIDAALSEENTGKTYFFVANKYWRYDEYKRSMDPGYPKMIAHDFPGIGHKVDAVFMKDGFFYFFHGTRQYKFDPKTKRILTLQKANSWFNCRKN
The experiment in a line: Assay for inhibitory activities on MMPs (fluorogenic peptide substrate): MMP-1. On the procedure: MMP-1 was purchased from Yagai.
(§1) The enzymatic activity on MMPs was analyzed by the method described in “C. Graham Knight, Frances Willenbrock and Gillian Murphy: A novel coumarin-labelled peptide for sensitive continuous assays of the matrix metalloproteinases: FEBS LETT., 296, (1992), 263-266”. The substrate: MOCAc-Pro-Leu-Gly-Leu-A2Pr(DNP)-Ala-Arg-NH2 was purchased from Peptide Institute, Inc., Osaka, Japan. The measurement of the inhibitory activities (IC50) was carried out by the following four methods;
(§2) (A) Reaction with substrate, enzyme (MMPs) and inhibitor
(§3) (B) Reaction with substrate and inhibitor, without enzyme
(§4) (C) Reaction with substrate and enzyme (MMPs), without inhibitor
(§5) (D) Reaction with substrate only
(§6) IC50 values were calculated by using the following formula and each fluorescence values of above four methods (A to D).
(§7) % inhibition={1−(A−B)/(C−D)}×100
(§8) IC50 means the concentration required to inhibit 50% of the enzyme activity.

For a further assay, the target named is T2, MMP-2 (Homo sapiens, UniProt P08253).
T2 construct: purchased Calbiochem-Novabiochem International, Inc
T2 sequence (P08253 110-660): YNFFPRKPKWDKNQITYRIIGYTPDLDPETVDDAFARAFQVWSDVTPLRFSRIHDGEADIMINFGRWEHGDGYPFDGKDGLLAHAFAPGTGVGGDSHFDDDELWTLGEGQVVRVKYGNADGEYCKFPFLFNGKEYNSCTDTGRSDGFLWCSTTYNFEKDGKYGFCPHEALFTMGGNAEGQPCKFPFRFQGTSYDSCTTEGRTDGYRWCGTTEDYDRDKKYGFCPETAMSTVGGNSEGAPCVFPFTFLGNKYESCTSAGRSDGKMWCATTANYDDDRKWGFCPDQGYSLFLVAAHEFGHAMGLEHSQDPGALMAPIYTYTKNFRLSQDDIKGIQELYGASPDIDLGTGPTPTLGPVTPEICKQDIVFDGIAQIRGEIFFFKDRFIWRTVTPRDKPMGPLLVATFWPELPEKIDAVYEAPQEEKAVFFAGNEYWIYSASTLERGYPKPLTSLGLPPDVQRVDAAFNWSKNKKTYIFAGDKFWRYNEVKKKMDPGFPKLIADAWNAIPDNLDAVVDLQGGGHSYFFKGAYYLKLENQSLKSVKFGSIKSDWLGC
As to the kind of experiment: Assay for inhibitory activities on MMPs (fluorogenic peptide substrate): MMP-2. On the procedure:
MMP-2 was purchased from Calbiochem-Novabiochem International, Inc.
as §1, §2, §3, §4, §5, §6, §7, §8

A further assay concerns the target T3, MMP-8 catalytic domain (Homo sapiens, UniProt P22894).
T3 construct: catalytic domain (^99Phe˜^262Gly); His-tag; enterokinase digestion-site; made in house; host or cells: Escherichia coli
The experiment in a line: Assay for inhibitory activities on MMPs (fluorogenic peptide substrate): MMP-8.
Excerpt: In regard to MMP-8, catalytic domain (^99Phe˜^262Gly) was amplified with PCR using commercial available Human Bone Marrow cDNA. This was cloned in Escherichia. coli expression vector pTrc99AHE inserted with His-tag sequence and enterokinase digestion-site, induced and expressed by IPTG (Isopropyl-β-D-thiogalactopyranoside) and expressed in a insoluble fraction (Than F. Ho, M. Walid Qoronfleh, Robert C. Wahl, Trica A. Pulvino, Karen J. Vavra, Joe Falvo, Tracey M. Banks, Patricia G. Brake and Richard B. Ciccarelli: Gene expression, purification and characterization of recombinant human neutrophil collagenase. Gene 146, (1994) 297-301, Prepared by the a improved method of this material). Isolation of MMP-8 from insoluble fraction was carried out by dissolving in modifier (6M urea) by a usual method and purification with metal chelate chromatography. And then removing modifier (6M urea) with dialysis and refolding of the enzyme spontaneously gave activated MMP-8.
as §1, §2, §3, §4, §5, §6, §7, §8

Another assay concerns the target T4, MMP-9 (Homo sapiens, UniProt P14780).
T4 construct: endogenous in cells; host or cells: HT1080 human fibrosarcoma cells, TPA-stimulated; purified in house from conditioned medium
The experiment in a line: Assay for inhibitory activities on MMPs (fluorogenic peptide substrate): MMP-9.
Excerpt: MMP-9 was isolated and purified by using a combination of procedures described in previous reports as follows. Yasunori Okada, Yukio Gonoji, Katsumi Naka, Katsuro Tomita, Isao Nakanishi, Kazushi Iwata, Kyoko Yamashita, and Taro Hayakawa: Matrix metalloproteinase 9 (92-kDa gelatinase/type IV collagenase) from HT1080 human fibrosarcoma cells. Purification and activation of the precursor and enzymic properties. J. Biol. Chem., 267 (1.992) 21712-21719. Yasunori Okada, Tatsuhisa Morodomi, Jan J, Enghild, Ko Suzuki, Atsushi Yasui, Isao Nakanishi, Guy Salvesen and Hideaki Nagase: Matrix metalloproteinase 2 from human rheumatoid synovial fibroblasts. Purification and activation of the precursor and enzymic properties. Eur. J. Biochem. 194 (1990) 721-730. Robin V Ward, Rosalind M Hembry, John J Reynolds and Gillian Murphy: The purification of tissue inhibitor of metalloproteinase-2 from its 72 kDa progelatinase complex. Biochem. J. 278 (1991) 179-187.
Briefly, human fibrosarcoma ATCC HT1080 cell line was cultured to confluent in Dulbecco's Modified Medium (DMEM) containing 10% fetal-calf serum at 37° C. for 48 hours. Subsequently, the medium of confluent culture was changed to serum-free DMEM medium. To obtain MMP-9, Phorbol-12-myristate-13-acetate (TPA) must be added to this serum-free DMEM medium at a concentration of 50 ng/ml. The TPA treated medium was centrifuged at 3000 rpm for 15 min and the supernatant was concentrated to 450 ml by a Toyo-Roshi UP-20 apparatus with an ultrafiltration membrane. Then, proMMP-9 in this concentrated solution was purified by using columns of Gelatin-Sepharose and Concanavalin A-Sepharose. The pool containing proMMP-9 was dialyzed, concentrated (Toyo-Roshi UP-20) and applied to columns of Sephacryl S-200 and Green A matrix for the separation from TIMPs. The obtained proMMP-9 fraction was activated by TPCK-Trypsin (final conc. […] reaction mix.).
as §1, §2, §3, §4, §5, §6, §7, §8

Another assay addresses T5, MMP-12 catalytic domain (Homo sapiens, UniProt P39900).
T5 construct: catalytic domain(^100Phe˜^263Gly); His-tag; enterokinase digestion-site; made in house; host or cells: Escherichia coli
As to the kind of experiment: Assay for inhibitory activities on MMPs (fluorogenic peptide substrate): MMP-12. The protocol:
(§9) In regard to MMP-12, catalytic domain(^100Phe˜^263Gly) was amplified with RT-PCR from Human Placenta Total RNA. This was cloned in Escherichia coli expression vector pTrc99AHE inserted with His-tag sequence and enterokinase digestion-site, induced and expressed by IPTG (Isopropyl-β-D-thiogalactopyranoside) and expressed in a insoluble fraction. Isolation of MMP-12 from a insoluble fraction was carried out by dissolving in modifier (6M urea) by a usual method and purification with metal chelate chromatography (Ni Chelateing Sepharose). And then removing modifier (6M urea) with dialysis and refolding of the enzyme spontaneously gave activated MMP-12.
as §1, §2, §3, §4, §5, §6, §7, §8

The target in a further assay is T6, MMP-13 catalytic domain (Homo sapiens, UniProt P45452).
T6 construct: catalytic domain (^104Tyr˜^267Gly); His-tag; enterokinase digestion-site; made in house; host or cells: Escherichia coli
As to the kind of experiment: Assay for inhibitory activities on MMPs (fluorogenic peptide substrate): MMP-13. On the procedure:
as §9, with “MMP-13, mRNA was prepared from carcinoma cell SW1353 derived from human cartilage stimulate by IL-1, TNF and” for “MMP-12,”, “domain (^104Tyr˜^267Gly)” for “domain(^100Phe˜^263Gly)”, “RT-PCR.” for “RT-PCR from Human Placenta Total RNA.”, “MMP-1.3” for “MMP-12”, “dialyze” for “dialysis”, “MMP-13.” for “MMP-12.”
as §1, §2, §3, §4, §5, §6, §7, §8

T5 sequence (P39900 100-263): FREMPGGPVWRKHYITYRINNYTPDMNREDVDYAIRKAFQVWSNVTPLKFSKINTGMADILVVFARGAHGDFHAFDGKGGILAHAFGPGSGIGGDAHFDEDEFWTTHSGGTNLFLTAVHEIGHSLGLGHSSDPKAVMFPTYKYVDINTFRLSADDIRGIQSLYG
T4 sequence (P14780 107-707 limits assumed): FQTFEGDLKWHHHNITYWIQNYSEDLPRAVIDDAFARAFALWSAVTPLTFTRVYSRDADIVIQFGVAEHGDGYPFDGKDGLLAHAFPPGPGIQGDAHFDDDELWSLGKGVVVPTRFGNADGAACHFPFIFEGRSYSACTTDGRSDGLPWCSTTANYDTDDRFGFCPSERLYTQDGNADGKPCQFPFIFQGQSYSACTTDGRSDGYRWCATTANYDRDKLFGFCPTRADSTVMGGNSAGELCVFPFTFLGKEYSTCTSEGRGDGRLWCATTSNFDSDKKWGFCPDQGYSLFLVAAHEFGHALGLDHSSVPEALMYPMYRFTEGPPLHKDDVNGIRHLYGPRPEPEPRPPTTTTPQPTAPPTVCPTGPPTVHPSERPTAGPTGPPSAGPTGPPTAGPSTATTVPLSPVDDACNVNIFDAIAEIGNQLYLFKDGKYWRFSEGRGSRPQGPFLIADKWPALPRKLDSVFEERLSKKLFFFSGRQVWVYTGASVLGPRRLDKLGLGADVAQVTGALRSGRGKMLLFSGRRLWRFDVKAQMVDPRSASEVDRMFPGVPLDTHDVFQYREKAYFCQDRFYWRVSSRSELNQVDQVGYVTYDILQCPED
T3 sequence (P22894 99-262): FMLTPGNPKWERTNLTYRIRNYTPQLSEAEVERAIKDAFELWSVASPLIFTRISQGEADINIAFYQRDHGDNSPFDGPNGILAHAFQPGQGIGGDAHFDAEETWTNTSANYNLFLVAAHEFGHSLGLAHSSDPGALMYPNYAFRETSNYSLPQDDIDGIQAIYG

One may read the IC50 as the concentration that gives 50% inhibition. `O=C(O)[C@@H](Cc1ccccc1)NS(=O)(=O)c1ccc(C#Cc2cccc3ccccc23)s1` [Compound B-17]: the IC50 against MMP-1 is above 10000 nM; against MMP-2 it was above 10000 nM; on MMP-8 catalytic domain, above 10000 nM; at MMP-9 it was above 10000 nM; on MMP-12 catalytic domain, 820 nM; against MMP-13 catalytic domain it was above 10000 nM.

Take `O=C(O)[C@@H](Cc1c[nH]c2ccccc12)NS(=O)(=O)c1ccc(C#Cc2ccc3ccccc3c2)s1` [Compound B-3]: the IC50 was above 10000 nM at MMP-1; 1400 nM against MMP-8 catalytic domain; 750 nM at MMP-9; 16 nM at MMP-12 catalytic domain; above 10000 nM against MMP-13 catalytic domain.

On to `O=C(O)[C@@H](Cc1ccccc1)NS(=O)(=O)c1ccc(C#Cc2ccc3ccccc3c2)s1` [Compound B-1], for which the IC50 against MMP-1 is above 10000 nM; on MMP-2, 820 nM; on MMP-8 catalytic domain it was above 10000 nM; on MMP-9, above 10000 nM; on MMP-12 catalytic domain it was 42 nM; at MMP-13 catalytic domain, above 10000 nM.

As for `CSCC[C@@H](NS(=O)(=O)c1ccc(C#Cc2ccc3ccccc3c2)s1)C(=O)O` [Compound B-10], the IC50 against MMP-1 was above 10000 nM; at MMP-2, 350 nM; at MMP-8 catalytic domain, 1000 nM; on MMP-9, 870 nM; against MMP-12 catalytic domain, 8.8 nM; against MMP-13 catalytic domain it was 950 nM.

Take `CC(C)C[C@H](NS(=O)(=O)c1ccc(C#Cc2ccc3ccccc3c2)cc1)C(=O)O` [Compound A-11]: the IC50 on MMP-1 is above 10000 nM; against MMP-2, 370 nM; against MMP-8 catalytic domain it was 580 nM; at MMP-9, 1270 nM; against MMP-12 catalytic domain, 5.9 nM; at MMP-13 catalytic domain it was 460 nM.

Turning to `O=C(O)[C@H](Cc1ccccc1)NS(=O)(=O)c1ccc(C#Cc2ccc3c(c2)OCO3)cc1` [Compound A-22], the IC50 is above 10000 nM on MMP-1; 13 nM on MMP-2; 10 nM at MMP-8 catalytic domain; 300 nM at MMP-9; 7.9 nM against MMP-12 catalytic domain; 37 nM against MMP-13 catalytic domain.

As to `CC(C)C[C@@H](NS(=O)(=O)c1ccc(C#Cc2ccc3ccccc3c2)cc1)C(=O)O` [Compound A-10], the IC50 at MMP-1 is above 10000 nM; at MMP-2 it was 370 nM; against MMP-8 catalytic domain, 4380 nM; on MMP-9 it was 1440 nM; on MMP-12 catalytic domain it was 58 nM; on MMP-13 catalytic domain, 1550 nM.

On to `C[C@H](NS(=O)(=O)c1ccc(C#Cc2ccc3ccccc3c2)cc1)C(=O)O` [Compound A-8], for which the IC50 is above 10000 nM against MMP-1; 570 nM against MMP-2; 2440 nM against MMP-8 catalytic domain; 3280 nM on MMP-9; 16 nM against MMP-12 catalytic domain; 2770 nM on MMP-13 catalytic domain.

Regarding `O=C(O)[C@H](Cc1ccccc1)NS(=O)(=O)c1ccc(C#Cc2ccc3ccccc3c2)cc1` [Compound A-3], the IC50 against MMP-1 is above 10000 nM; against MMP-2 it was above 10000 nM; against MMP-8 catalytic domain it was above 10000 nM; on MMP-9 it was above 10000 nM; against MMP-12 catalytic domain, 21 nM; at MMP-13 catalytic domain it was above 10000 nM.

Consider `O=C(O)[C@H](NS(=O)(=O)c1ccc(C#Cc2ccc3ccccc3c2)cc1)c1ccc(O)cc1` [Compound A-12], for which the IC50 is above 10000 nM against MMP-1; 370 nM against MMP-2; 3630 nM against MMP-8 catalytic domain; 1790 nM at MMP-9; 35 nM at MMP-12 catalytic domain; 1140 nM on MMP-13 catalytic domain.

On to `CC(C)[C@H](NS(=O)(=O)c1ccc(C#Cc2ccc3ccccc3c2)s1)C(=O)O` [Compound B-5], for which the IC50 at MMP-1 was above 10000 nM; on MMP-2 it was 2230 nM; against MMP-8 catalytic domain, 2340 nM; at MMP-9, 3270 nM; against MMP-12 catalytic domain, 82 nM; against MMP-13 catalytic domain it was 6900 nM.

Take `CC(C)[C@@H](NS(=O)(=O)c1ccc(C#Cc2ccc3ccccc3c2)cc1)C(=O)O` [Compound A-5]: the IC50 is above 10000 nM at MMP-1; 110 nM at MMP-2; 1060 nM at MMP-8 catalytic domain; 330 nM at MMP-9; 14 nM on MMP-12 catalytic domain; 340 nM against MMP-13 catalytic domain.

With `O=C(O)[C@H](NS(=O)(=O)c1ccc(C#Cc2ccc3ccccc3c2)s1)c1ccc(O)cc1` [Compound B-8], the IC50 against MMP-1 is above 10000 nM; against MMP-2, 1120 nM; against MMP-8 catalytic domain it was 2650 nM; on MMP-9 it was 2110 nM; against MMP-12 catalytic domain it was 48 nM; on MMP-13 catalytic domain, 2300 nM.

As for `CC(C)[C@H](NS(=O)(=O)c1ccc(C#Cc2ccc3ccccc3c2)cc1)C(=O)O` [Compound A-6], the IC50 against MMP-1 is above 10000 nM.
